Test results as given in patent US11197477B2, “Aqueous capsule suspension concentrates based on 2-[(2,4-dichlorophenyl)methyl]-4,4′-dimethyl-3-isoxazolidinone” (priority 2016, dated 2021).

Tests used:
[1] = Solubility of the active ingredient in Solvesso 200 ND; assay type: physicochemical; conditions: at room temperature; at higher concentrations the active ingredient crystallizes out in the capsule
Description: At higher concentrations, the active ingredient crystallizes out in the capsule.

[2] = cited from earlier work

solubility of the active ingredient in Solvesso 200 ND [1] [% by weight]	SMILES	water solubility [2] [ppm]
35	CC1(C)CON(Cc2ccc(Cl)cc2Cl)C1=O [DCPMI, 2-[(2,4-dichlorophenyl)methyl]-4,4′-dimethyl-3-isoxazolidinone]	39.5
–	CC1(C)CON(Cc2ccccc2Cl)C1=O [clomazone, 2-(2-chlorobenzyl)-4,4-dimethyl-1,2-oxazolidin-3-one]	1000
